For 46 molecules, IC50 results are on record in US9499493B2, “2,4-pyrimidinediamine compounds and their uses” (Rigel Pharmaceuticals, Inc., priority 2002, dated 2016).

Bounds are passed on as bounds.

The first test relates to cultured human mast cells (CHMC). Description: CHMC low cell density IgE activation: tryptase assay. Type of test: cell-based. The conditions noted are these: Homo sapiens, Mast cell, anti-IgE. As for the experimental part:
Pellet CHMC cells (980 rpm, 10 min) and resuspend in pre-warmed MT. Add 65 ul of cells to each 96-well plate. Depending on the degranulation activity for each particular CHMC donor, load 1000-1500 cells/well. Mix four times followed by a 1 hr incubation at 37° C. […] Stimulate cells by adding 25 ul of 6× anti-IgE solution to the appropriate plates. Add 25 ul MT to un-stimulated control wells. Mix twice following addition of the anti-IgE. Incubate at 37° C. for 30 minutes. […] Spin plates at 1000 rpm for 10 min to pellet cells. Transfer 25 ul of supernatant to a 96-well black bottom plate and add 100 ul of freshly diluted tryptase substrate solution to each well. Incubate plates at room temperature for 30 min.
In general, IC50 refers to the midpoint of a concentration-inhibition curve. For `O=C(O)Cc1cccc(Nc2ncc(F)c(Nc3cccc(CC(=O)O)c3)n2)c1` [R935117], the half-inhibitory concentration (IC50) was > 10000 nM.

The test is the same for the next values; noted with them: anti-IgE.
`COC(=O)C1Cc2cc(Nc3ncc(F)c(Nc4ccc(OCCO)nc4)n3)ccc2O1` (racemic) [R927025, (±)-N2-(2,3-Dihydro-2-methoxycarbonylbenzofuran-5-yl)-5-fluoro-N4-[2-(2-hydroxyethyleneoxy)pyridin-5-yl]-5-fluoro-2,4-pyrimidinediamine] registered an IC50 of 326 nM.

As to `Fc1cnc(Cl)nc1Nc1ccc(Cl)nc1` [Compound R920400], the concentration for half-maximal inhibition (IC50) is > 10000 nM.

On to `Cc1ccnc(Nc2nc(Cl)ncc2F)c1` [Compound R920401], for which the IC50 is > 10000 nM.

For `Fc1cnc(Cl)nc1Nc1cccc(OC(F)(F)F)c1` [Compound R920402], the half-inhibitory concentration (IC50) was > 10000 nM.

With `Fc1cnc(Cl)nc1Nc1ccc2c(c1)OC(F)(F)O2` [Compound R920403], the IC50 was > 10000 nM.

In the case of `Fc1cnc(Cl)nc1Nc1ccc2ncccc2c1` [Compound R920409], the 50% inhibitory concentration (IC50) was > 10000 nM.

With `CCOC(=O)C=C1NN=C(c2cccc(Nc3nc(Cl)ncc3F)c2)O1` [Compound R926873], the half-maximal inhibitory concentration (IC50) is > 10000 nM.

As for `Fc1cnc(Cl)nc1Nc1ccc(OC(F)(F)F)cc1` [Compound R926875], the IC50 was > 10000 nM.

With `Fc1cnc(Cl)nc1Nc1ccc(C(F)(F)F)cc1` [Compound R926876], the IC50 was > 10000 nM.

Take `Fc1cnc(Cl)nc1Nc1ccc(Cl)c(C(F)(F)F)c1` [Compound R926877]: the IC50 is > 10000 nM.

For the molecule `COc1ccc(Nc2nc(Cl)ncc2F)cn1` [Compound R926878], the half-inhibitory concentration (IC50) is > 10000 nM.

Turning to `Fc1ccc(Nc2nc(Cl)ncc2F)cc1F` [Compound R926882], the 50% inhibitory concentration (IC50) was > 10000 nM.

With `Fc1cnc(Cl)nc1Nc1ccc(Cl)c(Cl)c1` [Compound R926884], the IC50 is > 10000 nM.

With `Cc1cccc(Nc2nc(Cl)ncc2F)n1` [Compound R926888], the IC50 is > 10000 nM.

On to `Fc1cnc(Cl)nc1Nc1ccc2cn[nH]c2c1` [Compound R935260], for which the half-maximal inhibitory concentration (IC50) was > 10000 nM.

As for `Fc1cnc(Cl)nc1Nn1cccc1` [Compound R935275], the half-maximal inhibitory concentration (IC50) is > 10000 nM.

With `COc1ccc(Nc2nc(Cl)ncc2F)cc1CN1CCOCC1` [Compound R940313], the IC50 was > 10000 nM.

With `CC1(C)CN(c2cccc[n+]2[O-])c2cc(Nc3nc(Cl)ncc3F)ccc2O1` [Compound R940328], the 50% inhibitory concentration (IC50) was > 10000 nM.

On to `CC1(C)CN(c2ccccn2)c2cc(Nc3nc(Cl)ncc3F)ccc2O1` [Compound R940336], for which the half-maximal inhibitory concentration (IC50) is > 10000 nM.

In the case of `CC1(C)Oc2cc(Nc3nc(Cl)ncc3F)cnc2NC1=O` [Compound R940344], the concentration for half-maximal inhibition (IC50) is > 10000 nM.

As for `CN(C)C(=O)COc1cccc(Nc2ncc(F)c(Nc3ccc4c(c3)NCCO4)n2)c1` [R909290, N2-[3-(N,N-Dimethylaminocarbonylmethyleneoxy)phenyl]-N4-(1,4-benzoxazin-6-yl)-5-fluoro-2,4-pyrimidinediamine], the half-maximal inhibitory concentration (IC50) came to 226 nM.

The molecule `CNC(=O)COc1cccc(Nc2ncc(F)c(Nc3ccc4c(c3)N(C(=N)N)CCO4)n2)c1` [R909292, N4-(4N-Carboxamidino-1,4-benzoxazin-6-yl)-5-fluoro-N2-[3-(N-methylamino)carbonylmethyleneoxyphenyl]-2,4-pyrimidinediamine] gave a half-maximal inhibitory concentration (IC50) of 1170 nM.

`C[C@H](Nc1ncc(F)c(N[C@@H](C)[C@H](O)c2ccccc2)n1)[C@H](O)c1ccccc1` [R925767, N2,N4-Bis[(2R)-hydroxy-(1S)-methyl-2-phenylethyl]-5-fluoro-2,4-pyrimidinediamine] yielded an IC50 of 10000 nM.

For the molecule `Fc1cnc(NCc2ccc3c(c2)OCO3)nc1NCc1ccc2c(c1)OCO2` [R925770, N2,N4-Bis(piperonyl)-5-fluoro-2,4-pyrimidineamine], the half-inhibitory concentration (IC50) was > 10000 nM.

As for `Oc1cccc(Nc2ncc(F)c(Nc3ccc4c(c3)OCCO4)n2)c1` [R926210, N4-(3,4-Ethylenedioxyphenyl)-5-fluoro-N2-(3-hydroxyphenyl)-2,4-pyrimidinediamine], the half-maximal inhibitory concentration (IC50) was determined as 926 nM.

Regarding `O=C(O)COc1ccc(Nc2ncc(F)c(Nc3ccc4c(c3)OCCO4)n2)cc1` [R926238, N2-(4-Carboxymethyleneoxyphenyl)-N4-(3,4-ethylenedioxyphenyl)-5-fluoro-2,4-pyrimidinediamine], the 50% inhibitory concentration (IC50) is > 10000 nM.

Regarding `Cc1cc(Nc2ncc(F)c(Nc3ccc(O)c(C)c3)n2)ccc1O` [R926469, N2,N4′-Bis(4-hydroxy-3-methylphenyl)-5-fluoro-2,4-pyrimidinediamine], the IC50 was > 10000 nM.

Turning to `O=C(O)COc1cccc(Nc2ncc(F)c(Nc3ccc4c(c3)OCCO4)n2)c1` [R926483, N2-(3-Carboxymethyleneoxyphenyl)-N4-(3,4-ethylenedioxyphenyl)-5-fluoro-2,4-pyrimidinediamine], the half-inhibitory concentration (IC50) was > 10000 nM.

For `Oc1cccc(Nc2nc(Nc3ccc4oc(CN5CCNCC5)cc4c3)ncc2F)c1` [R926770, 5-Fluoro-N4-(3-hydroxyphenyl)-N2-[2-(N-piperazinomethylene)benzofuran-5-yl]-2,4-pyrimidinediamine], the half-maximal inhibitory concentration (IC50) is 583 nM.

Take `O=C(COc1cccc(Nc2ncc(F)c(Nc3cccc(O)c3)n2)c1)N1CCNCC1` [R926772, 5-Fluoro-N4-(3-hydroxyphenyl)-N2-[3-(N-piperazino)carbonylmethyleneoxyphenyl]-2,4-pyrimidinediamine]: the IC50 came out at 337 nM.

As to `CNC(=O)COc1cccc(Nc2ncc(F)c(Nc3ccc(C#N)c(C)c3)n2)c1` [R926851, N4-(4-Cyano-3-methylphenyl)-5-fluoro-N2-[3-(N-methylamino)carbonylmethyleneoxyphenyl]-2,4-pyrimidinediamine], it took 446 nM to reach half-maximal inhibition (IC50).

Consider `COc1cc(Nc2nc(Nc3cccc(O)c3)ncc2F)c(OC)cc1Cl` [R926860, N4-(4-Chloro-2,5-dimethoxyphenyl)-5-fluoro-N2-(3-hydroxyphenyl)-2,4-primidinediamine], for which the half-maximal inhibitory concentration (IC50) was determined as 1950 nM.

Molecule `CNC(=O)COc1cccc(Nc2ncc(F)c(Nc3cccc(-c4nnc(-c5ccccc5)o4)c3)n2)c1` [R926870, 5-Fluoro-N2-[3-(N-methylamino)carbonylmethyleneoxyphenyl]-N4-[3-(2-phenyl-1,3,4-oxadiazol-5-yl)phenyl]-2,4-pyrimidinediamine] returned a half-maximal inhibitory concentration (IC50) of 3290 nM.

Molecule `CNC(=O)COc1cccc(Nc2ncc(F)c(Nc3cccc(-c4nnc(-c5cccc(Cl)c5)o4)c3)n2)c1` [R926871, N4-[3-(2-(3-Chlorophenyl)-1,3,4-oxadiazol-5-yl)phenyl]-5-fluoro-N2-[3-(N-methylamino)carbonylmethyleneoxyphenyl]-2,4-pyrimidinediamine] showed an IC50 of 2150 nM.

As for `CNC(=O)COc1cccc(Nc2ncc(F)c(Nc3ccc4cc(C(=O)OC)[nH]c4c3)n2)c1` [R926904, 5-Fluoro-N2-[3-[(N-methylamino)carbonylmethyleneoxy]phenyl]-N4-[2-(methoxycarbonyl)-(1H)-indol-6-yl]-2,4-pyrimidinediamine], half-maximal inhibition (IC50) required 538 nM.

For the molecule `CCOC(=O)C(C)(C)Oc1cccc(Nc2ncc(F)c(Nc3cccc(O)c3)n2)c1` [R926906, N2-[3-(Ethoxycarbonyl-1,1-dimethylmethyleneoxy)phenyl]-5-fluoro-N4-(3-hydroxyphenyl)-2,4-pyrimidinediamine], the half-inhibitory concentration (IC50) turned out to be 794 nM.

`CCOC(=O)C(C)(C)Oc1cccc(Nc2ncc(F)c(Nc3ccc4c(c3)OCCO4)n2)c1` [R926907, N2-[3-(Ethoxycarbonyl-1,1-dimethylmethyleneoxy)phenyl]-N4-(3,4-ethylenedioxyphenyl)-5-fluoro-2,4-pyrimidinediamine] yielded a half-inhibitory concentration (IC50) of 764 nM.

As for `CCOC(=O)C(C)(C)Oc1cccc(Nc2ncc(F)c(Nc3ccc(C)c(O)c3)n2)c1` [R926908, N2-[3-(Ethoxycarbonyl-1,1-dimethylmethyleneoxy)phenyl]-5-fluoro-N4-(3-hydroxy-4-methylphenyl)-2,4-pyrimidinediamine], the IC50 came out at 585 nM.

Regarding `CCOC(=O)C(C)(C)Oc1cccc(Nc2ncc(F)c(Nc3ccc4cc[nH]c4c3)n2)c1` [R926909, N2-[3-(Ethoxycarbonyl-1,1-dimethylmethyleneoxy)phenyl]-5-fluoro-N4-[(1H)-indol-6-yl]-2,4-pyrimidinediamine], the half-maximal inhibitory concentration (IC50) was determined as 379 nM.

In the case of `CNC(=O)COc1cccc(Nc2ncc(F)c(Nc3cccc(SC(F)(F)F)c3)n2)c1` [R926925, 5-Fluoro-N2-[3-[(N-methylamino)carbonylmethyleneoxy]phenyl]-N4-(3-trifluoromethylthiophenyl)-2,4-pyrimidinediamine], inhibition was half-maximal at 307 nM (IC50).

In turn, `CCOC(=O)C1CCN(C(=O)c2cccc(Nc3nc(Nc4cccc(OCC(=O)NC)c4)ncc3F)c2)CC1` [R926941, N4-[3-[[4-(Ethoxycarbonyl)piperidino]carbonyl]phenyl]-5-fluoro-N2-[3-[(N-methylamino)carbonylmethyleneoxy]phenyl]-2,4-pyrimidinediamine] returned an IC50 of 4200 nM.

`CC(C)(CO)c1ccc(Nc2ncc(F)c(Nc3cccc(O)c3)n2)cc1` [R935153, 5-Fluoro-N2-[4-(2-hydroxy-1,1-dimethylethyl)phenyl]-N4-(3-hydroxyphenyl)-2,4-pyrimidinediamine] yielded a concentration for half-maximal inhibition (IC50) of 238 nM.

Molecule `CC(C)Oc1ccc(Nc2ncc(F)c(Nc3ccc4[nH]ncc4c3)n2)cc1` [R935266, 5-Fluoro-N4-(indazoline-5-yl)-N2-(4-isopropoxyphenyl)-2,4-pyrimidinediamine] had a 50% inhibitory concentration (IC50) of 2970 nM.

For the molecule `Fc1cnc(Nc2ccc3c(c2)OCCO3)nc1Nc1ccc2[nH]ncc2c1` [R935267, N2-(3,4-Ethyelenedioxyphenyl)-5-fluoro-N4-(indazoline-5-yl)-2,4-pyrimidinediamine], the IC50 is 2460 nM.

`Oc1cccc(Nc2ncc(F)c(Nc3ccc4[nH]ncc4c3)n2)c1` [R935268, 5-Fluoro-N2-(3-hydroxyphenyl)-N4-(indazoline-5-yl)-2,4-pyrimidinediamine] gave an IC50 of 1060 nM.
